Here are results for 5 molecules from ChEMBL document CHEMBL1144945, “Development of progesterone receptor antagonists from 1,2-dihydrochromeno[3,4-f]quinoline agonist pharmacophore” (Bioorg Med Chem Lett, 2003).

For test [1], the target named is T1, Progesterone receptor (Homo sapiens, UniProt P06401).
T1 sequence (P06401 whole entry): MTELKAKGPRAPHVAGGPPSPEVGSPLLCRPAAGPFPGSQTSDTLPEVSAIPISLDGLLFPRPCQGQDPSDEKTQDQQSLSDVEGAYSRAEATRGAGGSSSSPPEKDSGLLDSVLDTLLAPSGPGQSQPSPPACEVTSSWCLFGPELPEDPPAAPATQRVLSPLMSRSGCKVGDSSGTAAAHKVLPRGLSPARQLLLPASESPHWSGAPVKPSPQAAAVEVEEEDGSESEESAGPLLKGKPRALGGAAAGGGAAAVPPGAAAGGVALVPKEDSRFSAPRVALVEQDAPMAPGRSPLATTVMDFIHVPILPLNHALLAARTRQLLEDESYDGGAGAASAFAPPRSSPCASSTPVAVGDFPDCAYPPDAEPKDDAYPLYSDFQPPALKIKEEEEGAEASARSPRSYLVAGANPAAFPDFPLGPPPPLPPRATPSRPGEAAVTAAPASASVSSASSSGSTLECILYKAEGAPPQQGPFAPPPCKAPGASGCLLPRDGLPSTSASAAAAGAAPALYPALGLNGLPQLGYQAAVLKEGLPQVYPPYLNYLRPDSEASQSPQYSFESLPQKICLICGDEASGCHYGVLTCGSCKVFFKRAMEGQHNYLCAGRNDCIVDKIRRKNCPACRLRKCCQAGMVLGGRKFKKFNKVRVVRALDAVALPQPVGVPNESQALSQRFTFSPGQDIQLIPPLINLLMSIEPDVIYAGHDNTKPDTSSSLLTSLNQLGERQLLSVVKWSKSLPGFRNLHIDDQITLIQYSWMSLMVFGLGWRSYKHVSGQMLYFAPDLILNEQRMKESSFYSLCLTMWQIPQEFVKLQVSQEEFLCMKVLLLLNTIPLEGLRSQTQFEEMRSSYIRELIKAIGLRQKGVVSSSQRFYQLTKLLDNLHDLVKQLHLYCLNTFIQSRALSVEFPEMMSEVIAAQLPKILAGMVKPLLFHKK
The experiment in a line: Effective concentration for antagonistic activity towards human progesterone in CV-1 cells. Format: functional, cell-based.

For test [2], the target named is T1, Progesterone receptor. Briefly: Binding towards human progesterone receptor.
The target in test [3] is T2, Androgen receptor (Homo sapiens) (UniProt P10275).
T2 sequence (whole entry): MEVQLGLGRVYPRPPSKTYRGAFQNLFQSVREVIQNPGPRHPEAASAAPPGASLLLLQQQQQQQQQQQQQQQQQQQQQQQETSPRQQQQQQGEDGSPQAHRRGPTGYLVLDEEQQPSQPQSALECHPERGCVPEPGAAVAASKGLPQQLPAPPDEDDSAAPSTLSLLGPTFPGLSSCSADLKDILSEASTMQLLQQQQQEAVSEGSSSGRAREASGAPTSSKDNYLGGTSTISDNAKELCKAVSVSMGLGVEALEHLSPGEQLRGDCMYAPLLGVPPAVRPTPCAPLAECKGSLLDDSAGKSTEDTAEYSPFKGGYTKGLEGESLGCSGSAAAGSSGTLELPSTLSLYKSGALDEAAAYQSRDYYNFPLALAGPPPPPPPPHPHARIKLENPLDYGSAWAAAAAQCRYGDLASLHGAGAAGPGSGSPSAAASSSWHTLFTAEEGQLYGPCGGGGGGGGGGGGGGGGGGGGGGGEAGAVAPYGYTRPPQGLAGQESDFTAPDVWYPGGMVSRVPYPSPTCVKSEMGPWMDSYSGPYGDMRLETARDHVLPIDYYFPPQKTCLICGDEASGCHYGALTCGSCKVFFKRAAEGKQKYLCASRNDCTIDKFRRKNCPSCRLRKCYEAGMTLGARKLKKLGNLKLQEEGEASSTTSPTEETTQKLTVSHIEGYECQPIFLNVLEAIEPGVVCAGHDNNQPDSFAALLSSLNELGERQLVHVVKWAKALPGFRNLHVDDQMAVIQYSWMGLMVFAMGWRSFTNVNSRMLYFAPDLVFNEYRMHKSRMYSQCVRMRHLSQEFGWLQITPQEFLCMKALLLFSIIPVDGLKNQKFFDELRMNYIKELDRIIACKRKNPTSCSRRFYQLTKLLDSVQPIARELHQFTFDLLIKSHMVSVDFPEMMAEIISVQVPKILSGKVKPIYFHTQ
The experiment in a line: Antagonist efficacy for human sndrogen receptor. Format: functional.

Test [4] deals with T3, Glucocorticoid receptor (Homo sapiens, UniProt P04150).
T3 sequence (P04150 whole entry): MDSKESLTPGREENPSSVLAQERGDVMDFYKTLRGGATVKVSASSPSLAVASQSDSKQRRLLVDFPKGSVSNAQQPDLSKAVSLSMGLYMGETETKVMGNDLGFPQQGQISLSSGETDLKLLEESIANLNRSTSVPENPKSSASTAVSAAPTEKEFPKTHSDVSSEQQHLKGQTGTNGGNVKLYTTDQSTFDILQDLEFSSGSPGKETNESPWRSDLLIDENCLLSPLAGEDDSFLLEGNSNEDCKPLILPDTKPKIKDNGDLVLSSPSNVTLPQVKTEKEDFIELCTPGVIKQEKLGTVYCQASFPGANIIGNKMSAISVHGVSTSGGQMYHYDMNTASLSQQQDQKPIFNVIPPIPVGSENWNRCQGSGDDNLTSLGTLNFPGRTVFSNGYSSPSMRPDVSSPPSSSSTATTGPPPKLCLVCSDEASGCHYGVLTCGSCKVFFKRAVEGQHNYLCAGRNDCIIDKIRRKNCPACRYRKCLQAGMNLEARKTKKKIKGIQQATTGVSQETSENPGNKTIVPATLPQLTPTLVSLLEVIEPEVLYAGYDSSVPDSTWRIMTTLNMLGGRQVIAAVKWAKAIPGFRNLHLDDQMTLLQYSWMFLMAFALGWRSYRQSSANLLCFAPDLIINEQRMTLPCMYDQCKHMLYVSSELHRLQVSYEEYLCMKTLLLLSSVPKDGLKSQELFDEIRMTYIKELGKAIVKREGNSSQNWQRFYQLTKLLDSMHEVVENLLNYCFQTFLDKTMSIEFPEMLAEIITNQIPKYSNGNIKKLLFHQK
Briefly: Inhibition of antagonist activity towards glucocorticoid (hGR) receptor. Type of test: functional.

The target in test [5] is T4, Progesterone receptor (Homo sapiens) (UniProt P06401).
T4 sequence (whole entry): T1 sequence (P06401 whole entry)
The experiment in a line: Antagonist efficacy for human progesterone in CV-1 cells. Format: functional, cell-based.

The target of test [6] is T5, Glucocorticoid receptor (Homo sapiens) (UniProt P04150).
T5 sequence (whole entry): T3 sequence (P04150 whole entry)
The experiment in a line: Antagonist efficiency for glucocorticoid (hGR) receptor. Type of test: functional.

Test [7] deals with T6, Androgen receptor (Homo sapiens, UniProt P10275).
T6 sequence (P10275 whole entry): T2 sequence (whole entry)
The experiment in a line: Inhibition of antagonist activity towards human Androgen receptor. Type of test: functional.

In test [8] the target is T3, Glucocorticoid receptor. Briefly: Inhibition of antagonist activity towards glucocorticoid receptor. Type of test: functional.
Test [9] concerns the target T6, Androgen receptor.
Description: Inhibition of antagonist activity towards Androgen receptor
Test [10] concerns the target T4, Progesterone receptor (Homo sapiens). Briefly: Agonist efficacy for human progesterone in T47D human breast cancer cell. Format: functional, cell-based.
The target is the same in test [11]. The experiment in a line: Antagonist efficacy for human progesterone in T47D human breast cancer cell. Type of test: functional, cell-based.
For test [12], the target named is T5, Glucocorticoid receptor (Homo sapiens). Briefly: Antagonist efficacy for glucocorticoid (hGR) receptor. Type of test: functional.
Test [13] has as its target T1, Progesterone receptor. Briefly: Inhibition of human progesterone in T47D human breast cancer cell. Type of test: cell-based.
The target in test [14] is T5, Glucocorticoid receptor (Homo sapiens). The experiment in a line: Antagonist efficacy for glucocorticoid receptor; not active. Type of test: functional.
The target in test [15] is T6, Androgen receptor. Briefly: Inhibition of antagonist activity towards human androgen receptor. Type of test: functional.

The source made the active and inactive calls. No cut-off for these calls is given here.

As for `CC1=CC(C)(C)Nc2ccc3c(c21)COc1c(F)cc(Cl)cc1-3`, at Progesterone receptor [1], the concentration giving a half-maximal response (EC50) was 13.5 nM. This molecule also gave a Ki at Progesterone receptor [2] of 5.6 nM. Also, the figures for the Efficacy in test [3], in test [5] and in [6] were 79%, 74% and 95%, respectively. The figures for the 50% inhibitory concentration (IC50) on Glucocorticoid receptor [4] and against Androgen receptor [7] were 753 nM and 428 nM, respectively.
In the case of `CC1CC(C)(C)Nc2ccc3c(c21)COc1ccc([N+](=O)[O-])cc1-3` (stereo not drawn), the IC50 at Glucocorticoid receptor [8] stood at 1870 nM; at Androgen receptor [9], 63 nM.
With `CC1=CC(C)(C)Nc2ccc3c(c21)COc1c(F)cc(F)cc1-3`, the Efficacy in test [10] was determined as 42%; in [3] it was 87%; in [5], 83%; in test [11], 52%; in test [12], 57%. Besides, a half-maximal effect at Progesterone receptor [1] (EC50) was put at 25.4 nM. This molecule displayed an inhibition constant (Ki) on Progesterone receptor [2] of 13.5 nM. Further, the values for the half-maximal inhibitory concentration (IC50) at Glucocorticoid receptor [4], against Androgen receptor [7] and against Progesterone receptor [13] were 3030 nM, 644 nM and 86 nM, respectively.
With `CC1=CC(C)(C)Nc2ccc3c(c21)COc1c(F)cc(Br)cc1-3`, the IC50 came out at 2170 nM at Glucocorticoid receptor [8] and 90 nM at Androgen receptor [9].
For the molecule `CC1CC(C)(C)Nc2ccc3c(c21)COc1c(F)cc(F)cc1-3` (stereo not drawn), in test [14], the Efficacy entry was “inactive”. The molecule further registered a half-maximal inhibitory concentration (IC50) at Androgen receptor [15] of 147 nM.
